Test results published in patent US12371428B2 (Exelixis, Inc., priority 2019, dated 2025).

Tests used:
[1] = biological target: Human KDR (residues 790-1356) (Homo sapiens (Human), UniProt P35968); assay: Human KDR kinase assay, HTRF KinEase (Example B-2); type: biochemical; details: protocol of Example B-2 (other compounds)
Outline: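 Ten compound concentrations (3% DMSO final) were pre-plated, then KDR (790-1356) with biotinylated peptide in Mg/Mn/DTT buffer was added; ATP at Km (4.0 μM) started a 40 min room-temperature reaction. Detection used Eu-TK antibody and SA-XL665 in EDTA buffer; activity normalized to DMSO and reference inhibitor, IC50 by logistic fit.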

[2] = biological target: Mer (phospho-Mer, MERTK-transfected 293A cells) (Homo sapiens (Human), UniProt Q12866); assay: Mer autophosphorylation ELISA in transient transfected 293A cells (Example H); type: cell-based; details: cellular activity; Mer autophosphorylation ELISA in transient transfected 293A cells
Sequence of Mer (phospho-Mer, MERTK-transfected 293A cells) (Q12866 21-999): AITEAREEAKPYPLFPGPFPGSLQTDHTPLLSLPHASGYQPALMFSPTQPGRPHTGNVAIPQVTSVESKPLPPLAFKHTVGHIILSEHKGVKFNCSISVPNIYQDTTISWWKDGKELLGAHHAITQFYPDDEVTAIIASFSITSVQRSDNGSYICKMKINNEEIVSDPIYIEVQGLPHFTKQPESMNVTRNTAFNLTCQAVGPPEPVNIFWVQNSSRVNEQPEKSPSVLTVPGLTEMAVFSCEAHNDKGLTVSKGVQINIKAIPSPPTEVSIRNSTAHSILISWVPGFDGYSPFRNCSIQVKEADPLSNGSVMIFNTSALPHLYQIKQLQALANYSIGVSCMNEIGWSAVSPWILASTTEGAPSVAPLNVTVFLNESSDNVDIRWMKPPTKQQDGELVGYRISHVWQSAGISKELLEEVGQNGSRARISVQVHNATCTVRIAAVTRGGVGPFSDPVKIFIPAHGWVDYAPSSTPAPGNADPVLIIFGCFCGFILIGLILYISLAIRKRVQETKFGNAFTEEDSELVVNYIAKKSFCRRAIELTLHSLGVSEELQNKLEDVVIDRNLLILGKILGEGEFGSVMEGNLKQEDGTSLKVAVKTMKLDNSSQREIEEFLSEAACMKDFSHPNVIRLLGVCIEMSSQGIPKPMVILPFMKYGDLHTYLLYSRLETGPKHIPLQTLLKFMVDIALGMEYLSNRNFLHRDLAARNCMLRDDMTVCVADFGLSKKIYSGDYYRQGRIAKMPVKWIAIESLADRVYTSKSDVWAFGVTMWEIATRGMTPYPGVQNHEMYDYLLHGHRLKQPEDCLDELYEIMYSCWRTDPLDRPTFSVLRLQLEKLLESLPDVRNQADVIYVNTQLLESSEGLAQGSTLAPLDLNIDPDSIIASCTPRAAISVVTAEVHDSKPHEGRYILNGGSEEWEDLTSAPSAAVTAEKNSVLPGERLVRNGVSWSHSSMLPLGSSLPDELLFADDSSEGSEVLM
Outline: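 MERTK-transfected 293A; 8-pt dose, 1 h, serum-free, 0.3% DMSO. Cold lysis with orthovanadate and protease/phosphatase inhibitors. Phospho-Mer by DuoSet IC ELISA vs phospho-Mer standard. IC50: 4-PL fit; DMSO = 100%, reference inhibitor = 0%.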

[3] = biological target: Met (phospho-Met, HGF-stimulated PC-3 prostate cancer cells) (Homo sapiens (Human), UniProt P08581); assay: Met autophosphorylation ELISA in PC-3 cells (Example F); type: cell-based; details: cellular activity; Met autophosphorylation ELISA in PC-3 cells; read-out: c-Met IC50
Sequence of Met (phospho-Met, HGF-stimulated PC-3 prostate cancer cells) (P08581 25-1390): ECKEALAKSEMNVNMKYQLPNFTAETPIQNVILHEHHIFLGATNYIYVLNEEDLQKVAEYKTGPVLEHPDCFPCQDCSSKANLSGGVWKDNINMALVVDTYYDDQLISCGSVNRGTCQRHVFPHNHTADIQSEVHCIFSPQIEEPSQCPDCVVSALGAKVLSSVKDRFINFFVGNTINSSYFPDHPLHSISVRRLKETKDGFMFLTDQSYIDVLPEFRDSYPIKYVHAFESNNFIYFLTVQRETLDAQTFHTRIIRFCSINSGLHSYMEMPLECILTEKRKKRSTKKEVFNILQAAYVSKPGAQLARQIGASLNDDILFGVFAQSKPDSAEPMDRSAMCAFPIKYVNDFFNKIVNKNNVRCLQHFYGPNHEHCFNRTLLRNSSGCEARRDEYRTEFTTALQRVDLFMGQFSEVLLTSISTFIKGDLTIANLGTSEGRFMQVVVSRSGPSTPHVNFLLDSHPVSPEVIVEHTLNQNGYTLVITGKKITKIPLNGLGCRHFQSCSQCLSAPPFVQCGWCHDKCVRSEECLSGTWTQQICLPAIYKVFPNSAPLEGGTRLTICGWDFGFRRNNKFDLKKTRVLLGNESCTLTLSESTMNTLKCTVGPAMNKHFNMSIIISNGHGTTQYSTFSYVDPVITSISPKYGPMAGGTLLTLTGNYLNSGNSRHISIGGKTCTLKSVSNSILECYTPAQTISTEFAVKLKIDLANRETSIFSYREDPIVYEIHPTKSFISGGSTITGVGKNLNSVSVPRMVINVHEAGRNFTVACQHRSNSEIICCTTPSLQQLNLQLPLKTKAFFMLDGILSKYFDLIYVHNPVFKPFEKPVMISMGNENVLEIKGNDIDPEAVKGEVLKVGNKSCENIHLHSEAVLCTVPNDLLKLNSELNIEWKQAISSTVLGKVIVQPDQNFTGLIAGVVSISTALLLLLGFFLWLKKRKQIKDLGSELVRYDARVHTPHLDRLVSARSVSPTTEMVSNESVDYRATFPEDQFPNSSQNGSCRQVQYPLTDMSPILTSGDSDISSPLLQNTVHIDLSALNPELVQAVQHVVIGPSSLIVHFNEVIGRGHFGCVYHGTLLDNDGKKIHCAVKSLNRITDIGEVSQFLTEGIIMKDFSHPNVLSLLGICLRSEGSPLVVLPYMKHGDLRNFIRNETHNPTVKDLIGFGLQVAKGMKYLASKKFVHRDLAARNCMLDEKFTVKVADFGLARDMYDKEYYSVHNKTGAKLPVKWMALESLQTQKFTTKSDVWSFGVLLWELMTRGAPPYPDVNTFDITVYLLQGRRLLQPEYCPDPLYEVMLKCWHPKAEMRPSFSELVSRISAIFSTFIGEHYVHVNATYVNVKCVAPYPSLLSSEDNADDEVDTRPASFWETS
Outline: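 IC50 values derive from a 4-parameter logistic fit of phospho-Met (panTyr) sandwich ELISA signals in PC-3 lysates, scaled between DMSO and reference-inhibitor wells. Cells, starved 3 h in serum-free medium, had 1 h compound exposure (8 doses, 0.3% DMSO) before 10 min stimulation with 100 ng/mL HGF.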

[4] = biological target: Human MER (residues 528-999) (Homo sapiens (Human), UniProt Q12866); assay: Human Mer kinase assay, HTRF KinEase (Example C-2); type: biochemical; details: protocol of Example C-2 (other compounds)
Sequence of Human MER (residues 528-999) (Q12866 528-999): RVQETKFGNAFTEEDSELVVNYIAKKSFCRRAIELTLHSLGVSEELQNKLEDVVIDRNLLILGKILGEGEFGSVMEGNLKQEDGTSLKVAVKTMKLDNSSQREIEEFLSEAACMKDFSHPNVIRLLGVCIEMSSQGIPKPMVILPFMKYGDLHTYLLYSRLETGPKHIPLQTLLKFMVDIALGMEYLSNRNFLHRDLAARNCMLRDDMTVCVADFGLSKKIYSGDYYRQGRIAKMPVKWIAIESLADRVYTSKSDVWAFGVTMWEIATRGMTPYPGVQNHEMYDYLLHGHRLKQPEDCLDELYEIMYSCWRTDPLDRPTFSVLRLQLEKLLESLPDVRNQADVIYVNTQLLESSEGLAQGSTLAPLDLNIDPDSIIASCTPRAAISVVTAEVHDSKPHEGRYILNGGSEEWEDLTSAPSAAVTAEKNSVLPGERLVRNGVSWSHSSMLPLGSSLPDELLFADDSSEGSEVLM
Outline: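 HTRF KinEase TK assay with MER 528-999 (1 ng/well) in enzymatic buffer plus 5 mM MgCl2 and 1 mM DTT, biotinylated peptide substrate and ATP at Km (40 μM), 3% DMSO final, 60 min at room temperature. Stopped with EDTA detection mix (SA-XL665, TK antibody-Eu3+), read at 665/620 nm after 60 min; IC50 from 10-point 4-parameter fit, normalized to DMSO and 1 μM reference.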

Sequence of Human KDR (residues 790-1356) (P35968 790-1356): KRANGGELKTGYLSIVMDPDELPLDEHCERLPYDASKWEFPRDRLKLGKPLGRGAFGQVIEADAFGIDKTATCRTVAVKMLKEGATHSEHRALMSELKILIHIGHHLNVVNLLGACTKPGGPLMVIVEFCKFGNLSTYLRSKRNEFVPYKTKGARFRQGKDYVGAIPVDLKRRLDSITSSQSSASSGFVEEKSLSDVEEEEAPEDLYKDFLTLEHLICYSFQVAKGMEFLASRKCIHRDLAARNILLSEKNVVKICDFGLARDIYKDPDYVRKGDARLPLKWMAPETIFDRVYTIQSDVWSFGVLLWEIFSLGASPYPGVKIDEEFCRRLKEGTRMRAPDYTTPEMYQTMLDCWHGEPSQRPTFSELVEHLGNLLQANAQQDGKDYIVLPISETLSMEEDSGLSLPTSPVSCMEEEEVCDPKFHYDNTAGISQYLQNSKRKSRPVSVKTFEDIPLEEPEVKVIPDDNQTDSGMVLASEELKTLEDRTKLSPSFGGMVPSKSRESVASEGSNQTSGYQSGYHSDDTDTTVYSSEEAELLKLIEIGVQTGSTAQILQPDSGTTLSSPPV

| Compound | IC50 [1] | IC50 [2] | IC50 [3] | IC50 [4] |
| --- | --- | --- | --- | --- |
| CCn1cc(C(=O)Nc2ccc(Oc3ccnc4cc(OC)c(OC)nc34)c(F)c2)c(=O)c(-c2ccc(F)cc2C)c1CO [Compound 283, N-[4-[(6,7-Dimethoxy-1,5-naphthyridin-4-yl)oxy]-3-fluorophenyl]-1-ethyl-5-(4-fluoro-2-methylphenyl)-6-(hydroxymethyl)-4-oxopyridine-3-carboxamide] | > 300 nM | < 100 nM | < 100 nM | < 100 nM |
| COc1ccc2nccc(Oc3ccc(NC(=O)c4cnc(C)c(-c5ccc(F)cc5)c4O)cc3)c2n1 [Compound 342, 5-(4-fluorophenyl)-4-hydroxy-N-[4-[(6-methoxy-1,5-naphthyridin-4-yl)oxy]phenyl]-6-methylpyridine-3-carboxamide] | 100 to 300 nM | < 100 nM | < 100 nM | < 100 nM |
| COCc1c(-c2ccc(F)cc2)c(=O)c(C(=O)Nc2ccc(Oc3ccnc4cc(OC)c(OC)nc34)c(F)c2)cn1C [Compound 269, N-[4-[(6,7-Dimethoxy-1,5-naphthyridin-4-yl)oxy]-3-fluorophenyl]-5-(4-fluorophenyl)-6-(methoxymethyl)-1-methyl-4-oxopyridine-3-carboxamide] | > 300 nM | < 100 nM | < 100 nM | < 100 nM |
| COCc1ncc(C(=O)Nc2ccc(Oc3ccnc4cc(OC)c(OC)nc34)c(F)c2)c(O)c1-c1ccc(F)cc1 [Compound 301, N-[4-[(6,7-Dimethoxy-1,5-naphthyridin-4-yl)oxy]-3-fluorophenyl]-5-(4-fluorophenyl)-4-hydroxy-6-(methoxymethyl)pyridine-3-carboxamide] | < 100 nM | < 100 nM | < 100 nM | < 100 nM |
| CCn1cc(C(=O)Nc2ccc(Oc3ccnc4cc(OC)c(OC)nc34)cc2)c(=O)c(-c2ccc(F)cc2C)c1CO [Compound 284, N-[4-[(6,7-Dimethoxy-1,5-naphthyridin-4-yl)oxy]phenyl]-1-ethyl-5-(4-fluoro-2-methylphenyl)-6-(hydroxymethyl)-4-oxopyridine-3-carboxamide] | > 300 nM | < 100 nM | < 100 nM | < 100 nM |
| COc1ccc2nccc(Oc3ccc(NC(=O)c4c(C)cc(C)n(-c5ccc(F)cc5C)c4=O)cc3F)c2n1 [Compound 296, N-[3-Fluoro-4-[(6-methoxy-1,5-naphthyridin-4-yl)oxy]phenyl]-1-(4-fluoro-2-methylphenyl)-4,6-dimethyl-2-oxopyridine-3-carboxamide] | 100 to 300 nM | < 100 nM | < 100 nM | < 100 nM |
| Cc1ccc(C(=O)Nc2ccc(Oc3ccnc4ccc(OCCN(C)C)nc34)c(F)c2)c(=O)n1-c1ccc(F)cc1 [Compound 353, N-[4-[[6-[2-(dimethylamino)ethoxy]-1,5-naphthyridin-4-yl]oxy]-3-fluorophenyl]-1-(4-fluorophenyl)-6-methyl-2-oxopyridine-3-carboxamide] | > 300 nM | < 100 nM | < 100 nM | < 100 nM |
| COc1ccc2nccc(Oc3ccc(NC(=O)c4c(C)cc(C)n(-c5ccc(F)cc5)c4=O)cc3)c2n1 [Compound 290, 1-(4-Fluorophenyl)-N-[4-[(6-methoxy-1,5-naphthyridin-4-yl)oxy]phenyl]-4,6-dimethyl-2-oxopyridine-3-carboxamide] | < 100 nM | < 100 nM | < 100 nM | < 100 nM |
| Cc1ncc(C(=O)Nc2ccc(Oc3ccnc4ccc(OCCN5CCOCC5)nc34)c(F)c2)c(O)c1-c1ccc(F)cc1 [Compound 352, N-[3-fluoro-4-[[6-(2-morpholin-4-ylethoxy)-1,5-naphthyridin-4 yl]oxy]phenyl]-5-(4-fluorophenyl)-4-hydroxy-6-methylpyridine-3-carboxamide] | 100 to 300 nM | < 100 nM | < 100 nM | < 100 nM |
| COc1ccc2nccc(Oc3ccc(NC(=O)c4c(C)cc(C)n(-c5ccc(F)cc5)c4=O)cc3F)c2n1 [Compound 281, N-[3-Fluoro-4-[(6-methoxy-1,5-naphthyridin-4-yl)oxy]phenyl]-1-(4-fluorophenyl)-4,6-dimethyl-2-oxopyridine-3-carboxamide] | < 100 nM | < 100 nM | < 100 nM | < 100 nM |
| Cc1ccc(C(=O)Nc2ccc(Oc3ccnc4ccc(OCCN5CCOCC5)nc34)c(F)c2)c(=O)n1-c1ccc(F)cc1 [Compound 351, N-[3-fluoro-4-[[6-(2-morpholin-4-ylethoxy)-1,5-naphthyridin-4-yl]oxy]phenyl]-1-(4-fluorophenyl)-6-methyl-2-oxopyridine-3-carboxamide] | > 300 nM | < 100 nM | < 100 nM | < 100 nM |
| Cc1nc(C)c(-c2ccc(F)cc2)c(O)c1C(=O)Nc1ccc(Oc2ccnc3ccc(OCCN4CCOCC4)nc23)c(F)c1 [Compound 355, N-[3-fluoro-4-[[6-(2-morpholin-4-ylethoxy)-1,5-naphthyridin-4-yl)oxy]phenyl]-5-(4-fluorophenyl)-4-hydroxy-2,6-dimethylpyridine-3-carboxamide] | < 100 nM | < 100 nM | < 100 nM | < 100 nM |
| COc1ccc2nccc(Oc3ccc(NC(=O)c4cn(C(C)C)c(C)c(-c5ccc(F)cc5)c4=O)cc3)c2n1 [Compound 341, 5-(4-fluorophenyl)-N-[4-[(6-methoxy-1,5-naphthyridin-4-yl)oxy]phenyl]-6-methyl-4-oxo-1-propan-2-ylpyridine-3-carboxamide] | > 300 nM | < 100 nM | < 100 nM | < 100 nM |
| CCn1cc(C(=O)Nc2ccc(Oc3ccnc4cc(OC)cnc34)c(F)c2)c(=O)c(-c2ccc(F)cc2C)c1CO [Compound 285, 1-Ethyl-N-[3-fluoro-4-[(7-methoxy-1,5-naphthyridin-4-yl)oxy]phenyl]-5-(4-fluoro-2-methylphenyl)-6-(hydroxymethyl)-4-oxopyridine-3-carboxamide] | > 300 nM | < 100 nM | < 100 nM | < 100 nM |

Results, then the molecule that gave them:

| IC50 [1] | IC50 [2] | IC50 [3] | IC50 [4] | Compound |
| --- | --- | --- | --- | --- |
| > 300 nM | < 100 nM | < 100 nM | < 100 nM | COc1cc2nccc(Oc3ccc(NC(=O)C4=C5CCCN5CC(c5ccc(F)cc5)C4=O)cc3F)c2nc1OC (single isomer, unassigned; enantiomer 1) [Compound 374, N-[4-[(6,7-dimethoxy-1,5-naphthyridin-4-yl)oxy]-3-fluorophenyl]-6-(4-fluorophenyl)-7-oxo-2,3,5,6-tetrahydro-1H-indolizine-8-carboxamide, enantiomer 1] |
| > 300 nM | < 100 nM | < 100 nM | < 100 nM | COc1cc2nccc(Oc3ncc(NC(=O)c4cn(C5CN(C)C5)cc(-c5ccc(F)cc5)c4=O)cc3F)c2cc1OC [Compound 400, N-[6-(6,7-dimethoxyquinolin-4-yl)oxy-5-fluoropyridin-3-yl]-5-(4-fluorophenyl)-1-(1-methylazetidin-3-yl)-4-oxopyridine-3-carboxamide] |
| > 300 nM | < 100 nM | < 100 nM | < 100 nM | COc1ccc2nccc(Oc3ccc(NC(=O)c4ncc(C)n(-c5ccc(F)cc5C)c4=O)cc3F)c2n1 [Compound 394, N-[3-fluoro-4-[(6-methoxy-1,5-naphthyridin-4-yl)oxy]phenyl]-4-(4-fluoro-2-methylphenyl)-5-methyl-3-oxopyrazine-2-carboxamide] |
| < 100 nM | < 100 nM | < 100 nM | < 100 nM | Cc1ncc(C(=O)Nc2ccc(Oc3ccnc4cc(-c5cnn(C(F)F)c5)ccc34)cc2)c(O)c1-c1ccc(F)cc1 [Compound 377, N-[4-[7-[1-(difluoromethyl)pyrazol-4-yl]quinolin-4-yl]oxyphenyl]-5-(4-fluorophenyl)-4-hydroxy-6-methylpyridine-3-carboxamide] |
| < 100 nM | < 100 nM | < 100 nM | < 100 nM | COc1cc2nccc(Oc3ccc(NC(=O)c4ccnn(-c5ccc(F)cc5)c4=O)cc3F)c2nc1OC [Compound 386, N-[4-[(6,7-dimethoxy-1,5-naphthyridin-4-yl)oxy]-3-fluorophenyl]-2-(4-fluorophenyl)-3-oxopyridazine-4-carboxamide] |
| > 300 nM | < 100 nM | < 100 nM | < 100 nM | COc1ccc2nccc(Oc3ccc(NC(=O)c4nccn(-c5ccc(F)cc5)c4=O)cc3)c2n1 [Compound 383, 4-(4-fluorophenyl)-N-[4-[(6-methoxy-1,5-naphthyridin-4-yl)oxy]phenyl]-3-oxopyrazine-2-carboxamide] |
